# Laboratory results as given in article PMC9019904, “AD Informer Set: Chemical tools to facilitate Alzheimer's disease drug discovery” (Alzheimer's & Dementia : Translational Research & Clinical …, 2022).
# Legend:
# [1] = test system: BV2 (mouse microglia) cell line; test: pHrodo-myelin phagocytosis/cell viability high content imaging assay: viability (cell count, nuclear area, nuclear intensity); conditions: 48 hours treatment
# In short: (§1)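 Immortalized microglia are treated with compound (10 μM, single concentration) for 48 h, the final 20 h alongside pHrodo-myelin. Data are the mean of duplicates, reported as % of untreated control.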
# [2] = test system: HMC3 (human microglia) cell line; test: as above; conditions: 48 hours treatment
# In short: as §1
# [3] = test system: BV2 (mouse microglia) cell line; test: pHrodo-myelin phagocytosis/cell viability high content imaging assay: phagocytosis signal; assay type: cell-based
# In short: (§2)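 Imaging at high content captured pHrodo-myelin uptake about 22 hours after its addition, alongside a viability read-out from the same cells. Three measurements were derived, with intensity increase marking early apoptosis and decrease marking later apoptosis.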
# [4] = test system: HMC3 (human microglia) cell line; test: as above; assay type: cell-based
# In short: as §2
# [5] = BV2, compound 10 uM, pHrodo-myelin
# [6] = HMC3, compound 10 uM, pHrodo-myelin
# [7] = BV2 cells, 10 uM compound, 48 hours treatment, pHrodo-myelin final 20 hours
# [8] = HMC3 cells, 10 uM compound, 48 hours treatment, pHrodo-myelin final 20 hours
Structure (SMILES),"1. Cell count (% control) ([1]; BV2, compound 10 uM)","2. Nuclear Area (% Control) ([1]; BV2, compound 10 uM)","3. Nuclear DNA Intensity (% control) ([1]; BV2, compound 10 uM)","1. Cell count (% control) ([2]; HMC3, compound 10 uM)","2. Nuclear Area (% Control) ([2]; HMC3, compound 10 uM)","3. Nuclear DNA Intensity (% control) ([2]; HMC3, compound 10 uM)","4. Phagocytosis (% control) [3, 5] [% control]","4. Phagocytosis (% control) [4, 6] [% control]","1. Cell count (% control) ([1]; BV2 cells, 10 uM compound)","2. Nuclear Area (% Control) ([1]; BV2 cells, 10 uM compound)","3. Nuclear DNA Intensity (% control) ([1]; BV2 cells, 10 uM compound)","1. Cell count (% control) ([2]; HMC3 cells, 10 uM compound)","2. Nuclear Area (% Control) ([2]; HMC3 cells, 10 uM compound)","3. Nuclear DNA Intensity (% control) ([2]; HMC3 cells, 10 uM compound)","4. Phagocytosis (% control) [3, 7] [% control]","4. Phagocytosis (% control) [4, 8] [% control]"
Cc1cc(C)nc(NS(=O)(=O)c2ccc(NC(=O)NC(=O)c3ccc(Cl)cc3Cl)cc2)n1 [UNC10303168A],124.0,99.5,104.3,129.3,101.5,94.7,118.2,88.1,–,–,–,–,–,–,–,–
CC(=O)N1CCC(NC(=O)NC23CC4CC(CC(C4)C2)C3)CC1 [UNC10302683A],–,–,–,–,–,–,–,–,126.3,103.6,107.4,168.7,103.9,92.0,155.4,72.2
CCS(=O)(=O)N1CCN(c2ccc(Nc3ncc(C(N)=O)c(NC4CC4)n3)cc2)CC1 [UNC10245084A],6.9,115.7,50.0,54.5,136.2,128.1,2.3,110.4,–,–,–,–,–,–,–,–
CC(=O)O[C@@H]1[C@@H](OC(C)=O)[C@@H](O)[C@H](Oc2c(-c3ccc(O)cc3)oc3cc(O)cc(O)c3c2=O)O[C@H]1C [UNC10303187A],146.1,103.4,101.7,122.3,105.1,90.5,142.1,67.9,–,–,–,–,–,–,–,–
CC(=O)N1CCN(c2ccc(OC[C@H]3CO[C@](Cn4ccnc4)(c4ccc(Cl)cc4Cl)O3)cc2)CC1 [UNC10100724A],–,–,–,–,–,–,–,–,129.7,103.8,104.7,125.5,96.3,100.1,280.0,144.4
Cl.NCCOCCOCCNC(=O)Cc1ccc(Nc2nc(NCc3ccc(F)cc3)nc(NCC3CCCCC3)n2)cc1 [UNC10302950A],–,–,–,–,–,–,–,–,46.4,117.0,104.0,97.2,95.7,118.1,232.8,36.3
CCC(=C(c1ccc(O)cc1)c1ccc(OCCN(C)C)cc1)c1ccccc1 [UNC10302895A],–,–,–,–,–,–,–,–,114.3,103.3,103.4,134.2,100.6,93.3,182.9,89.5
CCc1cnn2c(NCc3ccc[n+]([O-])c3)cc(N3CCCC[C@H]3CCO)nc12 [UNC10302845A],16.3,103.8,20.9,51.6,136.2,97.0,3.5,167.0,–,–,–,–,–,–,–,–
CN1C[C@H](Nc2cnn(C)c(=O)c2Br)C[C@H](c2ccccc2)C1 [UNC10303157A],85.0,105.0,100.7,86.8,97.5,100.9,145.8,103.4,–,–,–,–,–,–,–,–
CN(C)CCCn1c(N)c(-c2nc3ccccc3[nH]2)c2nc3ccccc3nc21 [UNC10302891A],–,–,–,–,–,–,–,–,121.8,105.7,98.0,137.9,99.6,97.0,109.5,44.4
O=C1C=C(NCCc2cc(Br)c(O)c(Br)c2)C(=O)c2ncccc21 [UNC10303225A],8.3,122.7,97.1,62.3,83.0,132.4,163.7,54.3,–,–,–,–,–,–,–,–
C[C@@H](Oc1cc(-c2cnn(C3CCNCC3)c2)cnc1N)c1c(Cl)ccc(F)c1Cl [UNC10220526A],–,–,–,–,–,–,–,–,44.9,109.8,15.3,41.7,75.9,183.7,0.00113,0.09
